This note sets out measurements from PMC11547513, “Design, Synthesis and Biological Activity Evaluation of β-Carboline Derivatives Containing Nitrogen Heterocycles” (Molecules, 2024).

In general, IC50 refers to the point on the concentration scale where inhibition reaches its midpoint.

Several values for one entry are separate records, joined by “and”; a condition that tells them apart may be missing. Equal entries are not always repeated.

Test [1] deals with PC-3 cells. The test is described as follows: Colony formation assay. The class given is cell-based, human. The conditions noted are these: Figure 3A.
In test [2] the test system is PC-3 cells. Description: Annexin V-FITC/PI apoptosis, flow cytometry. The test is classed as cell-based, human. The note with it: 10 μM. An excerpt: (§1) Apoptosis is an important target for antitumor therapy. To explore the antitumor mechanism of compound 8q, cell apoptosis was detected using flow cytometry. […] Moreover, reactive oxygen species (ROS) play a significant role in cell growth, differentiation and apoptosis. Excessive ROS can cause oxidative damage and lead to cell apoptosis. […]
2.3.The effect of compound 8q on cell apoptosis
We used Annexin V-FITC/ PI double staining to evaluate cellular apoptosis via flow cytometry to figure out if apoptosis participates in the inhibition of cell growth.
PC-3 cells were seeded in a six-well plate at a density of 3 × 105, and cultured at 37 ℃ and 5% CO2 for 24 h before adding 10 μM. 20 μM and 30 μM compound 8q and 30 μM Harmine to each well. After 48 h, the cells were collected and stained and incubated flowing the manufacturer ’s protocol of the Annexin V-FITC/PI Apoptosis Detection Kit (Solarbio, Beijing, China). After completion, the cells were immediately detected on the Flow Cytometry (Solarbio, Beijing, China). The experimental results were processed using Flow Jo and Prism 7.04 software. […]
For orientation: Flow cytometry measures light scatter and fluorescence of single cells or particles in a stream.

Test [3] has as its system PC-3 cells. Description: Intracellular ROS assay (DCFH-DA, flow cytometry). The class given is cell-based, human. The note with it: 10 μM, 24 h; negative control MFI 19.8. The protocol: as §1
a wound healing assay was performed using the method we previously reported1. In short, PC-3 cells were seeded in a six-well plate at a density of 10 × 105 and incubated at a constant temperature of 37 ℃ and 5% CO2 for 24 h. Then the pipette tip was used to create a uniform wound on the surface of cells. Subsequently, after cleaning twice with PBS, the scratch healing of the 8q treatment group and the positive drug treatment […]
was used to measure and quantify cell migration. […]
PC-3 cells were seeded in a six-well plate at a density of 3 × 105, and cultured at 37 ℃ and 5% CO2 for 24 h before adding 10 μM. […] After completion, the cells were immediately detected on the Flow Cytometry (Solarbio, Beijing, China). […]
at 37 ° C for 20 min. Subsequently, the staining solution was wash off with basic culture medium and detected the fluorescence intensity using the flow cytometer. The data was analyzed and obtained through Flow Jo and Prism 7.04 software. […]
(§2) The distribution of cycles was analyzed by Flow Jo and Prism 7.04 software. […]

Test [4] concerns PC-3 cells. Description: Cell cycle assay (PI, flow cytometry). The class given is cell-based, human. The note with it: 24 h; for Cell cycle distribution, S phase: negative control 20.8%; for Cell cycle distribution, G2/M phase: negative control 23.6%; for Cell cycle distribution, G0/G1 phase: negative control 50.6%. The protocol: (§3) To analyze the effect of compound 8q on cell cycle, the cycle of PC-3 cells was detected after being treated with compound 8q for 24 h (Figure 5). […] In addition, Cyclin D1, a cell cycle-related protein, is a key regulator of cycle progression, mainly regulating G1/S phase transition. […] In summary, compound 8q can arrest cells in the G0/G1 phase. […]
2.5. Cell cycle arrest of compound 8q on PC-3
To determine the effect of compound 8q on the cell cycle distribution of PC-3 cell, we used our previous method with slight modifications2. Briefly, cells were incubated in a six-well plate with a density of 3 × 105 at 37 ℃ and 5% CO2 for 24 h, followed by the addition of different concentrations of compound 8q for further incubation for 24 h.
Next, the cells were collected and washed twice with PBS. 75% anhydrous ethanol was used to immobilize the cells under overnight conditions at 4 ℃. Subsequently, PBS washed cells, and RNase from the cell cycle assay kit (Solarbio, Beijing, China) was added and incubated in a constant temperature (37 ℃) water bath for 30 min. Then PI was added under dark conditions and incubated at 4 ℃ for another half hour to detect.
as §2

The test system of a further test is Cyclin D1. Description: Western blot of Cyclin D1 expression in PC-3 cells. The conditions noted are these: 30 μM, 24 h, β-Tubulin internal reference. The test is classed as cell-based, human. The protocol: as §3
2.6.Effects of 8q on expression of cell cycle related protein
PC-3 cells were seeded in six-well plates at a density of 3 × 10^5 per well and incubated in 5 % CO2 incubator at 37 ℃ for 24 h. Then different concentrations of 8q and Harmine were added to continue cultivation for 24 h. The prepared 1× RIPA lysis buffer (Solarbio, Beijing, China), as well as protease (Solarbio, Beijing, China) and phosphatase inhibitors (Solarbio, Beijing, China), were added to the well in a ratio of 100:1:1. The cells were scraped off and then lysed on ice for 40 min. Mixed liquid was centrifuged, and the supernatant used the BCA protein assay kit (Beyotime, Shanghai, […]
China) to measure protein concentration. 12.5% SDS-PAGE gel was used to separate the extracted total protein, which was transferred onto a PVDF membrane and sealed with 5% skim milk for 2.5 h. After that, primary antibodies included β-Tubulin and Cyclin D1 were added and incubated overnight at 4 ℃. […]

Test [5] deals with A549 (human lung cancer cell). The test is described as follows: MTT assay, in vitro cytotoxicity on A549. (Tetrazolium assays rely on reduction of a dye to a coloured formazan, in cell work by metabolically active cells.)
Source text: (§4) Cells were purchased from the Cell Bank of the Chinese Academy of Sciences (Kunming, China).
Test [6] relates to T47D (human breast cancer cell). The test is described as follows: MTT assay, in vitro cytotoxicity on T47D.
Source text: as §4
Test [7] relates to Hek-293T (human embryonic kidney cells). Description: MTT assay, in vitro cytotoxicity on normal Hek-293T. The conditions noted are these: read-out: Inhibitory Activity/% at 10 μM, Hek-293T.
Source text: as §4

Take `COc1cc(-c2nc(-c3nnc(SCC(=O)Nc4ccc(CN5CCOCC5)cc4)o3)cc3c2[nH]c2ccccc23)cc(OC)c1OC` [Compound 8q, N-(4-(morpholinomethyl)phenyl)-2-((5-(1-(3,4,5-trimethoxyphenyl)-9H-pyrido[3,4-b]indol-3-yl)-1,3,4-oxadiazol-2-yl)thio)acetamide]: in the test with PC-3 cells [1], the “Inhibition of colony formation (proliferation) of PC-3 cells” value is given as “concentration-dependent manner”. In addition, the “Total apoptosis rate in PC-3 cells” value in the test with PC-3 cells [2] (48 h) amounted to 63.23%. Moreover, in the test on PC-3 cells [2] (Figure 4A), the “Annexin V-FITC/PI flow cytometry quadrant Q1” value was 0.35, the “Annexin V-FITC/PI flow cytometry quadrant Q2” value is recorded as 22.7, the “Annexin V-FITC/PI flow cytometry quadrant Q3” value is reported as 32.9 and the “Annexin V-FITC/PI flow cytometry quadrant Q4” value is given as 44.1. Further, the “ROS mean fluorescence intensity (MFI) value” in the test with PC-3 cells [3] came to 138. Besides, in the test on PC-3 cells [4] (10 μM), the “Cell cycle distribution, S phase” value was determined as 14.2%; the “Cell cycle distribution, G2/M phase” value is recorded as 20.8%; the “Cell cycle distribution, G0/G1 phase” value is 55.66% and 58.5%. Moreover, in the test on PC-3 cells [4] (20 μM), the “Cell cycle distribution, S phase” value turned out to be 13.0%; the “Cell cycle distribution, G2/M phase” value came out at 18.4%; the “Cell cycle distribution, G0/G1 phase” value was 60.83% and 63.0%. In the test on PC-3 cells [4] (30 μM), the “Cell cycle distribution, S phase” value was 9.01%; the “Cell cycle distribution, G2/M phase” value was 20.5%; the “Cell cycle distribution, G0/G1 phase” value is 62.03% and 64.9%. In addition, the “Expression of Cyclin D1” value in the test on Cyclin D1 was “significantly downregulated”. The IC50 in test [5] (A549, read-out: IC50 (Mean ± S.D.), A549) came out at 26.2 ± 1.51 µM. Further, the inhibition at 10 µM in test [5] (A549, read-out: Inhibitory Activity/% at 10 μM, A549) is 32.9 ± 4.3%. The IC50 in test [6] (read-out: IC50 (Mean ± S.D.), T47D) stood at 9.96 ± 0.63 µM. Moreover, in test [6] (read-out: Inhibitory Activity/% at 10 μM, T47D), the inhibition at 10 µM was found to be 14.5 ± 7.43%. Also, the inhibition at 10 µM in test [7] worked out at 54.8 ± 0.99%.
